{"source": "patent US8969515B2", "about": "“Pharmaceutical composition for treating hyperproliferative diseases” (OOO “MetaMax”, priority 2011, dated 2015)", "key": {"[1]": {"test_system": "cell lines HEK293 and A549", "assay": "Cell cycle arrest by chemotherapeutics alone, preliminary experiments", "format": "cell-based, human", "conditions": "100 nMol", "excerpt": "This concentration for all drugs was 100 nMol."}, "[2]": {"test_system": "HEK293 cell line, non-synchronized and synchronized", "assay": "Effect of pAntp chimeric peptide versions on cell cycle, HEK293", "format": "cell-based, human", "conditions": "40 μM; for changes of the cell cycle phases: synchronized and nonsynchronized cells", "experimental": "FIG. 22. Effect of chimeric peptide pAntp containing a p16INK4a fragment, on the cell cycle. A—non-synchronized cell line HEK293, B—cell line HEK293 synchronized in S-phase. Peptide concentration is 40 µM. The peptides are pAntp and three further peptides 1-p16, 2-p16, and 3-p16, wherein peptides 1-p16 and 2-p16 are synthetic peptides differing by the location of the 20 amino acids fragment of p16 relative to pAntp; and peptide 3-p16 is a genetically engineered peptide comprising a 50 amino acids insert of protein Antp.\nWe used three versions of the chimeric peptide containing p16INK4a active center and pAntp vector. These chimeric peptides differ by location of the active center relative to N-C termini of the molecule and the presence of an insertion of 44 amino acids ([…], SEQ ID NO: 9) for peptide 3 produced by genetic engineering method (Table 1).\nIn the study of the properties of these peptides we also investigated synchronized and nonsynchronized cell cultures. In a synchronized culture, the peptide was added at the time of sync block removal and in the nonsynchronized at a monolayer density (for adhesion cultures) of ~50%."}, "[3]": {"test_system": "cell lines A549, HEK293 and MCF-7", "assay": "Apoptosis level with pAntp chimeric peptide versions", "format": "cell-based, human", "conditions": "40 μM, lines A549 and HEK 293, non-synchronized and synchronized", "experimental": "FIG. 24. Effect of chimeric peptides containing a p16INK4a fragment on apoptosis level in non-synchronized and synchronized cell line A549. Peptide concentration is 40 µM. Y-axis—percentage of apoptotic bodies.\nFIG. 25. Effect of chimeric peptides containing a p16INK4a fragment on apoptosis level in non-synchronized and synchronized HEK293 cell line. Peptide concentration is 40 µM. Y-axis—percentage of apoptotic bodies.\nFIG. 26. Comparisons of cytotoxic effect of chimeric peptides pAntpp16 (1, 2) on HEK293 cell culture.\nIn the next phase of work, we assessed the dependence of the cytotoxic effect exerted by the chimeric test peptides with the peptide vector pAntp. An experiment to determine the level of apoptosis was carried out on the cell lines A549 (human, lung carcinoma), HEK293 (human, embryonic kidney) and MCF-7 (human, mammary adenocarcinoma). Cells were cultured by standard techniques in DMEM medium containing 10% of FSB. A part of the cells was previously synchronized using the method of double thymidine block and synchronization method with the depleted media (see “Experiment. Parts”). The chimeric test peptides pAntp-p16 (1 and 2) were added to the culture medium. As a negative control we used cells treated with the peptide pAntp_zam (FIGS. 24, 25)."}, "[4]": {"test_system": "HEK293 cell line synchronized in G0/G1 phase", "assay": "Cell cycle phase analysis by flow cytofluorometry after sync block removal", "format": "cell-based, human", "conditions": "for antiproliferative effect on cell cycle: peptide added at sync block removal", "experimental": "(§1) In experiments with cell lines we evaluated the distribution of cells according to the phases of the cell cycle and calculated the proliferation index. For analysis we used software FloMax 2.0 (built-in option of flow cytofluorimenter) and software Modfit LT 3.0 (FIGS. 7 and 8). We also carried out the determination of the proportion of cells entered the apoptosis based on size of “pre-G1-hypodiploid” peak on DNA histogram (FIG. 8 (B)). Experiments were performed both on cell lines synchronized in phase G1/S, and on non-synchronized cell lines Raji, Jurkatt, A549, HEK 293, MCF-7.\nThe study of the effects of peptides was conducted on transplantable cell cultures. In order to study alterations in the expression of specific intracellular regulators and in order to improve visualization of the experiments, the cells were pre-synchronized.\nAt the first stage of the evaluation of the obtained results, we investigated the effect of internalizable chimeric peptides with different active centers—p16INK4a and p21/CIP/KIP. The chimeric peptide to be studied was added at the moment of the sync block removal. Cell cycle analysis was performed every 2 hours for 24 hours after removal of the block.\nWe investigated chimeric peptides having p16INK4a active center and having different types of vectors, Tat and pAntp. […] As is seen from FIG. 18, plots of dependencies of the number of cells in the cell cycle phases are similar in appearance for the two types of peptide vectors carrying p16 fragment. In the control sample—synchronized cell culture without the addition of the study peptide, the number of cells in G0/G1-phase starts to decline as early as 2 hours after removal of the synch block, and 10 hours later we recorded the lowest number of cells in G0/G1-phase. S-phase in the control samples starts to increase 4-6 hours after sync block removal and reaches a maximum after 12 hours."}, "HEK293 cell line": {"test_system": "HEK293 cell line", "assay": "Apoptosis level (hypodiploid peak) in HEK293 culture", "format": "cell-based, human", "conditions": "synchronized culture", "experimental": "FIG. 16. Mean apoptosis values for synchronized HEK293 cell culture in a series of experiments using internalized peptides with active centers p21 and p16. Incubation time with peptide is 24 hours. Concentration of peptides is 40 µMol. Y-axis—percentage of apoptotic particles.\nFIG. 20. Mean apoptosis values in synchronized culture of HEK293 after addition of chimeric peptides Tat_p16 and pAntp p16. […] The peptides were added at the moment of synchronization block removal. The effect was evaluated after 24 hours.\nFIG. 21. Change in the level of apoptosis in the cell culture depending on the incubation time with peptides Tat_p16 and pAntp_p16 for synchronized 293 cell line (A) and synchronized A549 cell line (B).\nas §1"}, "cyclin B": {"test_system": "cyclin B", "assay": "Cyclin B mRNA expression by quantitative RT-PCR", "format": "cell-based, human", "experimental": "FIG. 29. Study of cyclin B synthesis in HEK293 cell culture by adding peptide Tat_p16 (30 µMol). […] X-axis—incubation time (hours), Y-axis—abstract units.\nIt is known that the phosphorylation of pRb is an initiating step for activation of expression of cyclins A and B and for transition of cells from G1 into S phase of the cell cycle. Quantitative PCR method was used to study mRNA expression level of cyclin B when exposed to Tat_p16 peptide. For this purpose during experiment on synchronized culture with adding Tat_p16 chimeric peptide at a concentration of 40 µmol, we performed a parallel selection of cells from samples for RNA extraction, whereas a part of the cells served the determination of the cell cycle phases. Further processing of the material involved RNA isolation and quantitative PCR reaction setting (RT-PCR) carried out according to the protocol."}, "A549 cells xenograft": {"test_system": "A549 cells xenograft", "assay": "Anti-tumor activity in vivo, local injection, A549 xenograft", "conditions": "24 days", "excerpt": "10 mice constituted the 1st treatment group. […] The experiment lasted 24 days.\nIn the experimental groups, we observed a reduced tumor growth and on day 6 after the begin of administration of the peptide there could be observed a significant reduction in tumor volume in experimental groups compared with the control ones (FIG. 32). The experiment lasted 24 days. During this time, we performed 10 injections of the chimeric peptide in the experimental groups. In the control group, on day 24 of the experiment, the average tumor volume in mice was 95.24 mm^3, one mouse died. In the first experimental group (administered dose of peptide—0.1 mg) average tumor volume was 39.29 mm^3, one mouse died."}, "HCT-116 cells xenograft": {"test_system": "HCT-116 cells xenograft", "assay": "Anti-tumor activity in vivo, local injection, HCT-116 xenograft", "design": "species or system mice", "conditions": "0.1 mg group, 28 days", "excerpt": "The tumor nodule of HCT-116 cells is characterized by a large in size and the presence of ulceration. In the control group, on day 28 of the experiment the average tumor volume reached 679 mm^3, 3 mice died during the experiment. In the test group, a lower rate of tumor growth was observed (FIG. 32), on day 28 of the experiment the average tumor volume was 225.4 mm^3, the number of dead animals in the experimental group was 2."}, "[5]": {"conditions": "after sync block removal, 40 μM"}}, "data": [{"compound": "CC(=O)O[C@H]1C(=O)[C@@]2(C)[C@H]([C@H](OC(=O)c3ccccc3)[C@]3(O)C[C@H](OC(=O)[C@H](O)[C@@H](NC(=O)c4ccccc4)c4ccccc4)C(C)=C1C3(C)C)[C@]1(OC(C)=O)CO[C@@H]1C[C@@H]2O", "note": "[Taxol]", "values": [{"measurement": "cell cycle arrest phase", "setting": "[1]", "result": "G2/M-phase arrest"}]}, {"compound": "pAntp_p16(1): chimeric peptide, p16INK4a fragment at C-terminus, pAntp at N-terminus (SEQ ID NO: 10), solid phase synthesis (RQIKIWFQNRRMKWKKDAAREGFLDTLVVLHRAGAR; pAntp_p16(1), chimeric peptide; listed as Homo Sapiens)", "values": [{"measurement": "changes of the cell cycle phases", "setting": "[2]", "result": "fails to induce the expected cytostatic effect"}, {"measurement": "anti-proliferative effect on cells", "setting": "[2]; summary of HEK293 and A549 experiments", "result": "does not have an anti-proliferative effect"}, {"measurement": "effect on the level of apoptosis", "setting": "[3]", "result": "markedly increases"}]}, {"compound": "COc1cc([C@@H]2c3cc4c(cc3[C@@H](O[C@@H]3O[C@@H]5CO[C@@H](C)O[C@H]5[C@H](O)[C@H]3O)[C@H]3COC(=O)[C@H]23)OCO4)cc(OC)c1O", "note": "[Etoposide]", "values": [{"measurement": "cell cycle arrest phase", "setting": "[1]", "result": "S-phase arrest"}]}, {"compound": "YGRKKRRQRRRGPVKRRLDL [Tat_p21]", "values": [{"measurement": "time of maximum difference of cell cycle phases between control and test samples", "setting": "[4]; [5]", "result": "10 to 12", "unit": "h"}, {"measurement": "time at which G2/M-phase level reaches a maximum value", "setting": "[4]; average", "result": "18 to 20", "unit": "h"}, {"measurement": "antiproliferative effect on cell cycle", "setting": "[4]; 40 μM", "result": "arrest of transition of cells from S-phase in G2/M-phase"}, {"measurement": "level of S-phase remaining over 14 hours of incubation", "setting": "[4]; test sample, over 14 hours", "result": "65-70%"}, {"measurement": "dependence of the level of apoptosis on the incubation time", "setting": "HEK293 cell line", "result": "has not been observed"}, {"measurement": "mean apoptosis values versus control samples", "setting": "HEK293 cell line; 24 hours, 40 μMol", "result": "no significant differences"}]}, {"compound": "O=c1[nH]cc(F)c(=O)[nH]1", "note": "[5-fluorouracil]", "values": [{"measurement": "cell cycle arrest phase", "setting": "[1]", "result": "G0/G1-phase arrest"}]}, {"compound": "pAntp_zam: control peptide with p16INK4a sequence (amino acids 82-102) with substitution of tyrosine by alanine at position 92 (RQIKIWFQNRRMKWKKDAAREGFLDALVVLHRAGAR; pAntp_zam, chimeric peptide; listed as Homo Sapiens) [reference compound]", "values": [{"measurement": "changes of the cell cycle phases", "setting": "[2]", "result": "do not differ from the control"}, {"measurement": "effect on the level of apoptosis", "setting": "[3]", "result": "not affected"}]}, {"compound": "DAAREGFLDTLVVLHRAGARS YGRKKRRQRRRG (DAAREGFLDTLVVLHRAGARSYGRKKRRQRRRG; Tat_p16, chimeric peptide; listed as Homo Sapiens)", "values": [{"measurement": "time at which G0/G1 phase starts to decrease", "setting": "[4]; [5]", "result": "simultaneously with G0/G1-phase in control sample"}, {"measurement": "time at which S-phase begins to increase", "setting": "[4]; [5]", "result": 12, "unit": "h"}, {"measurement": "time of maximum S-phase", "setting": "[4]; [5]", "result": 14, "unit": "h"}, {"measurement": "time of maximum difference of cell cycle phases between control and test samples", "setting": "[4]; [5]", "result": "about 12 hours"}, {"measurement": "time of maximum difference of cell cycle phases between control and test samples", "setting": "[4]; after sync block removal, 40 μM, listed as Tatp16", "result": 12, "unit": "h"}, {"measurement": "antiproliferative effect on cell cycle", "setting": "[4]; 40 μM", "result": "arrest of G1-S transition"}, {"measurement": "time at which increase in G2-phase occurs", "setting": "[4]; same experiment as cyclin B RT-PCR", "result": 16, "unit": "h"}, {"measurement": "effect on expression of cyclin B", "setting": "cyclin B; HEK293 synchronized in G0/G1, Tat_p16 40 μmol", "result": "inhibits the expression of B cyclin"}, {"measurement": "incubation time after which cyclin B expression level increases", "setting": "cyclin B; control maximum at 12 hours", "result": 16, "unit": "h"}]}, {"compound": "CC[C@H](C)[C@H](NC(=O)[C@H](CCCCN)NC(=O)[C@@H](NC(=O)[C@H](CCC(N)=O)NC(=O)[C@H](CCCNC(=N)N)NC(=O)[C@H](CO)NC(=O)[C@H](CCCNC(=N)N)NC(=O)[C@H](C)NC(=O)CNC(=O)[C@H](C)NC(=O)[C@H](CCCNC(=N)N)NC(=O)[C@H](Cc1c[nH]cn1)NC(=O)[C@H](CC(C)C)NC(=O)[C@@H](NC(=O)[C@@H](NC(=O)[C@H](CC(C)C)NC(=O)[C@@H](NC(=O)[C@H](CC(=O)O)NC(=O)[C@H](CC(C)C)NC(=O)[C@H](Cc1ccccc1)NC(=O)CNC(=O)[C@H](CCC(=O)O)NC(=O)[C@H](CCCNC(=N)N)NC(=O)[C@H](C)NC(=O)[C@H](C)NC(=O)[C@@H](N)CC(=O)O)[C@@H](C)O)C(C)C)C(C)C)[C@@H](C)CC)C(=O)N[C@@H](Cc1c[nH]c2ccccc12)C(=O)N[C@@H](Cc1ccccc1)C(=O)N[C@@H](CCC(N)=O)C(=O)N[C@@H](CC(N)=O)C(=O)N[C@@H](CCCNC(=N)N)C(=O)N[C@@H](CCCNC(=N)N)C(=O)N[C@@H](CCSC)C(=O)N[C@@H](CCCCN)C(=O)N[C@@H](Cc1c[nH]c2ccccc12)C(=O)N[C@@H](CCCCN)C(=O)N[C@@H](CCCCN)C(=O)O", "note": "[pAntp_p16(2)]", "values": [{"measurement": "mice died", "setting": "A549 cells xenograft; 0.1 mg group", "result": "one"}, {"measurement": "mice died", "setting": "A549 cells xenograft; 0.2 mg group", "result": "no animals died"}, {"measurement": "number of dead animals", "setting": "HCT-116 cells xenograft", "result": 2}]}]}
